From ChEMBL document CHEMBL4118284, “Exploration of diphenylalkyloxadiazoles as novel cardiac myosin activator” (Bioorg Med Chem Lett, 2018)

Legend:
Bos taurus [1] = species: Bos taurus; assay: Activation of actin-stimulated bovine cardiac myosin S1 fragment ATPase activity in sarcomere at 10 uM after 10 mins by spectrophotometric analysis relative to control
Bos taurus [2] = species: Bos taurus; assay: Activation of actin-stimulated bovine cardiac myosin S1 fragment ATPase activity in sarcomere at 5 uM after 10 mins by spectrophotometric analysis relative to control
Gallus gallus = species: Gallus gallus; assay: Activation of actin-stimulated chicken gizzard smooth muscle myosin S1 fragment ATPase activity at 100 uM after 10 mins by spectrophotometric analysis relative to control
Oryctolagus cuniculus = species: Oryctolagus cuniculus; assay: Activation of actin-stimulated rabbit psoas skeletal muscle myosin S1 fragment ATPase activity at 100 uM after 10 mins by spectrophotometric analysis relative to control
[3] = Activation of actin-stimulated bovine cardiac myosin S1 fragment ATPase activity in sarcomere after 10 mins by spectrophotometric analysis; design: species or system Bos taurus
Bos taurus [4] = species: Bos taurus; assay: Activation of actin-stimulated bovine cardiac myosin S1 fragment ATPase activity in sarcomere at 1 uM after 10 mins by spectrophotometric analysis relative to control

| Activity (Bos taurus [1]) [%] | Activity (Bos taurus [2]) [%] | Activity (Gallus gallus) [%] | Activity (Oryctolagus cuniculus) [%] | EC50 [3] [µM] | Activity (Bos taurus [4]) [%] | SMILES |
| --- | --- | --- | --- | --- | --- | --- |
| 22.5 |  |  |  |  |  | NS(=O)(=O)c1ccc(-c2nnc(CCCc3ccccc3)o2)cc1 |
| 38.7 |  |  |  |  |  | COc1ccc(CCc2nnc(CCCc3ccccc3)o2)cc1OC |
| 66.3 | 60.3 | 4.2 | 3.3 | 3.02 | 34.1 | c1ccc(CCCc2nc(Cc3ccccc3)no2)cc1 |
| 18.4 |  |  |  |  |  | COc1ccc(Cc2noc(CCCc3ccccc3)n2)cc1OC |
| 2.5 |  |  |  |  |  | c1ccc(CCCc2nnc(CCCc3ccccc3)o2)cc1 |
| 33.6 |  |  |  |  |  | CN(C)S(=O)(=O)c1ccc(CCc2nnc(CCCc3ccccc3)o2)cc1 |
| 4.2 |  |  |  |  |  | Fc1ccc(Cc2nnc(CCCc3ccccc3)o2)cc1 |
| 62.9 | 60.2 | -3.9 | 1.8 | 3.06 | 33.5 | c1ccc(CCCc2nnc(Cc3ccccc3)o2)cc1 |
| 59.2 | 55.2 | -3.7 | -2.5 | 3.27 | 32.5 | c1ccc(CCCc2nnc(-c3ccccc3)o2)cc1 |
| 15.9 |  |  |  |  |  | c1ccc(CCCc2nnc(-c3ccncc3)o2)cc1 |
| 40.2 |  |  |  |  |  | COc1ccc(-c2nnc(CCCc3ccccc3)o2)cc1OC |
| 51 | 45.3 | 4.1 | -3.1 | 4.5 | 29.7 | c1ccc(CCCc2nnc(CCc3ccccc3)o2)cc1 |
| 8.6 |  |  |  |  |  | c1ccc(CCCCc2nnc(-c3ccncc3)o2)cc1 |
| 11.9 |  |  |  |  |  | CN(C)S(=O)(=O)c1ccc(CCCc2nnc(-c3ccccc3)o2)cc1 |
| 16.1 |  |  |  |  |  | COc1ccc(Cc2nnc(CCCc3ccccc3)o2)cc1OC |
| 37.3 |  |  |  |  |  | COc1ccc(-c2nnc(CCCc3ccccc3)o2)cc1 |

Continued, compound first:

| SMILES | Activity (Bos taurus [1]) [%] | Activity (Bos taurus [2]) [%] | Activity (Gallus gallus) [%] | Activity (Oryctolagus cuniculus) [%] | EC50 [3] [µM] | Activity (Bos taurus [4]) [%] |
| --- | --- | --- | --- | --- | --- | --- |
| CN(C)S(=O)(=O)c1ccc(CCCc2nc(-c3ccccc3)no2)cc1 | 37.2 |  |  |  |  |  |
| COc1ccc(-c2noc(CCCc3ccccc3)n2)cc1OC | 46.8 |  |  |  |  |  |
| COc1ccc(-c2nnc(NCCCc3ccccc3)o2)cc1OC | 41.7 |  |  |  |  |  |
| c1ccc(CCNc2nnc(-c3ccccc3)o2)cc1 | 35.2 |  |  |  |  |  |
| c1ccc(CCCc2nc(-c3ccccc3)no2)cc1 | 60.7 | 56.4 | -2.4 | -5.3 | 3.18 | 31.9 |
| c1ccc(CCCc2nnc(C3CCOCC3)o2)cc1 | 30.8 |  |  |  |  |  |
| NS(=O)(=O)c1ccc(-c2nnc(NCCCc3ccccc3)o2)cc1 | 33 |  |  |  |  |  |
| c1ccc(CCCCc2nnc(C3CCOCC3)o2)cc1 | 11.2 |  |  |  |  |  |
| Cc1ccc2c(c1)C(=O)[C@]1(O)CCN(c3ccccc3)C1=N2 |  |  | -37.3 | -54.1 |  |  |
| COC(=O)N1CCN(Cc2cccc(NC(=O)Nc3ccc(C)nc3)c2F)CC1 [OMECAMTIV MECARBIL] | 56.5 | 49.9 | -3.8 | 2.2 | 3.35 | 31.2 |
| c1ccc(CCCNc2nnc(-c3ccccc3)o2)cc1 | 50.5 | 42.6 | 2.3 | 1.9 | 5.25 | 28.4 |
| c1ccc(CCCCNc2nnc(-c3ccccc3)o2)cc1 | 32.8 |  |  |  |  |  |
| c1ccc(CCCCc2nc(-c3ccccc3)no2)cc1 | 35.9 |  |  |  |  |  |
| c1ccc(CCCNc2nnc(-c3ccncc3)o2)cc1 | 22.9 |  |  |  |  |  |
| c1ccc(CCCc2nnc(CCC3CCCCC3)o2)cc1 | 58.9 | 53.1 | 4.5 | -2.7 | 3.48 | 30 |
